Laboratory results taken from ChEMBL document CHEMBL4507320, “Data for DCP probe NVS-MALT1” (2021).
pKi: −log10 of the molar value. Active and inactive are the calls of the source. The calls are words filed in the database; no cut-off is given here.

Experiments:
[1] = target: Cathepsin S (Homo sapiens) (UniProt P25774); test: Cathepsin S (h) Protease assay; conditions: Compound concentration 10.0 uM
[2] = target: Cathepsin B (Homo sapiens) (UniProt P07858); test: Cathepsin B (h) Protease assay; conditions: Compound concentration 10.0 uM
[3] = target: Beta-2 adrenergic receptor (Homo sapiens) (UniProt P07550); conditions: Compound concentration 10.0 uM
[4] = target: Coagulation factor VII (Homo sapiens) (UniProt P08709); test: Factor VIIa (h) Protease assay; conditions: Compound concentration 10.0 uM
[5] = target: T1, Mucosa-associated lymphoid tissue lymphoma translocation protein 1 (Homo sapiens, UniProt Q9UDY8); test: IL-2 – PMA + anti-CD28 + 50% Rat whole blood; format: tissue-based; conditions: target entry is the homologue from another species
T1 sequence (Q9UDY8 whole entry): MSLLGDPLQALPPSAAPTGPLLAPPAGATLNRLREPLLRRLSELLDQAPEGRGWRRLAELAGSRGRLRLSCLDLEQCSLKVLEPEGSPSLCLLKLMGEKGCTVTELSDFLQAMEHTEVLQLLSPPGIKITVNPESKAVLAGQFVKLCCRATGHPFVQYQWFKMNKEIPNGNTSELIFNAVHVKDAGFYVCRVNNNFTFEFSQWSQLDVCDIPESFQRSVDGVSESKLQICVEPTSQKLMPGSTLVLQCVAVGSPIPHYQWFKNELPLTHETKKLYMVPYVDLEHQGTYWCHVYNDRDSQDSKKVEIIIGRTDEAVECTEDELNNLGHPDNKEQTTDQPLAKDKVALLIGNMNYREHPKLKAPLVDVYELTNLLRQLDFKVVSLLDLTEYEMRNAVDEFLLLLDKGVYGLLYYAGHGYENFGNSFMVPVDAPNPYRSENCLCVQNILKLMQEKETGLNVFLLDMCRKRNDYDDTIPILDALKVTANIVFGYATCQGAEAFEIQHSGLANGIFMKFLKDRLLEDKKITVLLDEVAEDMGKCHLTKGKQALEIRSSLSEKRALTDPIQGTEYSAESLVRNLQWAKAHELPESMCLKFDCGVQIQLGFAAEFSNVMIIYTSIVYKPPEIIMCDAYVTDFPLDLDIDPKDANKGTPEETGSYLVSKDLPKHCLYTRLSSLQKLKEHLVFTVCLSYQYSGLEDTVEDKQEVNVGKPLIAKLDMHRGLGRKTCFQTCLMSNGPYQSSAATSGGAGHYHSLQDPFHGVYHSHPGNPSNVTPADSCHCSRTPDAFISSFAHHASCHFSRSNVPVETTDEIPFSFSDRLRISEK

[6] = target: Coagulation factor X (Homo sapiens) (UniProt P00742); test: Factor Xa (h) Protease assay; conditions: Compound concentration 10.0 uM
[7] = target: Chymase (Homo sapiens) (UniProt P23946); test: Chymase (h) Protease assay; conditions: Compound concentration 10.0 uM
[8] = target: Plasma kallikrein (Homo sapiens) (UniProt P03952); test: Plasma Kallikrein Protease assay; conditions: Compound concentration 10.0 uM
[9] = target: Receptor-type tyrosine-protein kinase FLT3 (Homo sapiens, UniProt P36888); test: Kinase panel; set-up: compound concentration 10 uM
[10] = target: Beta-1 adrenergic receptor (Homo sapiens) (UniProt P08588); conditions: Compound concentration 10.0 uM
[11] = target: Trypsin (Homo sapiens) (UniProt P07477+P07478+P35030); test: Trypsin (h) Protease assay; format: protein assay; conditions: Compound concentration 10.0 uM
[12] = target: Neutrophil collagenase (Homo sapiens) (UniProt P22894); test: MMP-8 (h) Protease assay; conditions: Compound concentration 10.0 uM
[13] = target: Histamine H3 receptor (Homo sapiens) (UniProt Q9Y5N1); conditions: Compound concentration 10.0 uM
[14] = target: Cathepsin D (Homo sapiens) (UniProt P07339); test: Cathepsin D (h) Protease assay; conditions: Compound concentration 10.0 uM
[15] = target: Neutrophil elastase (Homo sapiens) (UniProt P08246); test: Neutrophil elastase 2 (h) Protease assay; conditions: Compound concentration 10.0 uM
[16] = target: Caspase-3 (Homo sapiens) (UniProt P42574); test: Caspase 3 (h) Protease assay; conditions: Compound concentration 10.0 uM
[17] = target: Prothrombin (Homo sapiens) (UniProt P00734); test: Thrombin (h) Protease assay; conditions: Compound concentration 10.0 uM
[18] = target: T1, Mucosa-associated lymphoid tissue lymphoma translocation protein 1; test: IL-2 – PMA + anti-CD28 + 50% Human whole blood; format: tissue-based
[19] = target: Cathepsin G (Homo sapiens) (UniProt P08311); test: Cathepsin G (h) Protease assay; conditions: Compound concentration 10.0 uM
[20] = target: Sigma intracellular receptor 2 (Homo sapiens, UniProt Q5BJF2); test: GPCRScan assay: inhibition of Sigma 2; set-up: radioligand conc. used [nm] 5.0, parental cells HEKT
[21] = target: Muscarinic acetylcholine receptor M1 (Homo sapiens) (UniProt P11229); conditions: Compound concentration 10.0 uM
[22] = target: 5-hydroxytryptamine receptor 7 (Homo sapiens, UniProt P34969); test: GPCRScan assay: inhibition of 5-HT7A; set-up: radioligand conc. used [nm] 5.0 – 6.0, parental cells Stable HEK
[23] = target: Sigma non-opioid intracellular receptor 1 (Homo sapiens, UniProt Q99720); test: GPCRScan assay: inhibition of Sigma 1; set-up: radioligand conc. used [nm] 4.0 – 5.0, parental cells HEKT

Beta-2 adrenergic receptor (Homo sapiens), sequence (P07550 whole entry, looked up): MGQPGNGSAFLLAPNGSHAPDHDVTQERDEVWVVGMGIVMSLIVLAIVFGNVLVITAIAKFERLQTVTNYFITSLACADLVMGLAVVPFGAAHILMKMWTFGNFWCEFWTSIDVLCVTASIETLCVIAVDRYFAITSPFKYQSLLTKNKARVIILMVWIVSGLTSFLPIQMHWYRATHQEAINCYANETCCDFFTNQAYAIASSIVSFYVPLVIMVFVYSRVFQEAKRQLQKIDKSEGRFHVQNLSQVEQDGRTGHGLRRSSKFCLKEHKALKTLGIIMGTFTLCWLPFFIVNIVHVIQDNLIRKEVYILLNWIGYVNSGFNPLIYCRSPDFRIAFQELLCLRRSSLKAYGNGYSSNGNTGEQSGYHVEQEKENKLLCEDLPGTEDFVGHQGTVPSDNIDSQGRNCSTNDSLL
Coagulation factor X (Homo sapiens), sequence (P00742 41-179 limits assumed): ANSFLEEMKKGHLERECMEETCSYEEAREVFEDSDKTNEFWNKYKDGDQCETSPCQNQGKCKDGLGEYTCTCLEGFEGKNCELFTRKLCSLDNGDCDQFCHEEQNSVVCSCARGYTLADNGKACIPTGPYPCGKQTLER
Coagulation factor X (Homo sapiens), sequence (P00742 235-488 limits assumed): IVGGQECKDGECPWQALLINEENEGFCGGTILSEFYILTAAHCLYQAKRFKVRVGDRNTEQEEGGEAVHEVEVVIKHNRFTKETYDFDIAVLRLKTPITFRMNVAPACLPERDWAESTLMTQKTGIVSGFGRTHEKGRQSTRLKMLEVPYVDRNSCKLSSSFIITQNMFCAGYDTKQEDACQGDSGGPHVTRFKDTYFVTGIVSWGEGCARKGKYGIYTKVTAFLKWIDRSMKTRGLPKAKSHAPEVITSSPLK
Caspase-3 (Homo sapiens), sequence (P42574 29-175 limits assumed): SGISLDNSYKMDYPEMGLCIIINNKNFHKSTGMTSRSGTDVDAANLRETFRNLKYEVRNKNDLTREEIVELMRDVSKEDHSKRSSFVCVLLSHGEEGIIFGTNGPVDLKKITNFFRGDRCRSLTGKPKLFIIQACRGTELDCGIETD
Caspase-3 (Homo sapiens), sequence (P42574 176-277 limits assumed): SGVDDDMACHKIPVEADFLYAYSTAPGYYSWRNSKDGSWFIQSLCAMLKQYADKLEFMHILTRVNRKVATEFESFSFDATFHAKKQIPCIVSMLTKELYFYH
Receptor-type tyrosine-protein kinase FLT3, sequence (P36888 whole entry): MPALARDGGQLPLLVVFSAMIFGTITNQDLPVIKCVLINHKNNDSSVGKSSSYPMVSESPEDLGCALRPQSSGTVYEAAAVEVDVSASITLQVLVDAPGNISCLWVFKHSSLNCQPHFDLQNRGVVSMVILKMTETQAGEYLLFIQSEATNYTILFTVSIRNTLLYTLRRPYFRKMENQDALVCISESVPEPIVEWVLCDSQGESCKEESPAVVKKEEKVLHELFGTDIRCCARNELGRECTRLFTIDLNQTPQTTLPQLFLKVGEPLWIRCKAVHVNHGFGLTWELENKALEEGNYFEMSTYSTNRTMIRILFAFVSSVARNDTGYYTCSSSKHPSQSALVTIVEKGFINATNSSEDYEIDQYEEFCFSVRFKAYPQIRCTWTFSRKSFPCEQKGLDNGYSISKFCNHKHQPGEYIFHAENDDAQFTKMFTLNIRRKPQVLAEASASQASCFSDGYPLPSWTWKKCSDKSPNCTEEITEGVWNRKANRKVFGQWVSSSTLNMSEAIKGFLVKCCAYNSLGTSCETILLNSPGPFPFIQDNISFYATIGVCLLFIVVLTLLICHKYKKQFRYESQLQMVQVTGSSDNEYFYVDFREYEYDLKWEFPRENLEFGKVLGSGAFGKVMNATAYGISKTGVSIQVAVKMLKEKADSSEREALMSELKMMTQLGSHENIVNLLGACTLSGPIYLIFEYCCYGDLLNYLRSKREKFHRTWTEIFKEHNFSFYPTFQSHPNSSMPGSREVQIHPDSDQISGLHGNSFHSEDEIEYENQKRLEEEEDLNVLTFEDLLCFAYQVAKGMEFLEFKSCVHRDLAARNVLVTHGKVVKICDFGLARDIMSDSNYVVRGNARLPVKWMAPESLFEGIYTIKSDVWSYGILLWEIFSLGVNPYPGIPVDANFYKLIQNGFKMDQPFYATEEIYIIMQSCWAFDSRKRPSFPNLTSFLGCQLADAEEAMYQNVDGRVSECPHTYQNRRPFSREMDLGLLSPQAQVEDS
Beta-1 adrenergic receptor (Homo sapiens), sequence (P08588 whole entry, looked up): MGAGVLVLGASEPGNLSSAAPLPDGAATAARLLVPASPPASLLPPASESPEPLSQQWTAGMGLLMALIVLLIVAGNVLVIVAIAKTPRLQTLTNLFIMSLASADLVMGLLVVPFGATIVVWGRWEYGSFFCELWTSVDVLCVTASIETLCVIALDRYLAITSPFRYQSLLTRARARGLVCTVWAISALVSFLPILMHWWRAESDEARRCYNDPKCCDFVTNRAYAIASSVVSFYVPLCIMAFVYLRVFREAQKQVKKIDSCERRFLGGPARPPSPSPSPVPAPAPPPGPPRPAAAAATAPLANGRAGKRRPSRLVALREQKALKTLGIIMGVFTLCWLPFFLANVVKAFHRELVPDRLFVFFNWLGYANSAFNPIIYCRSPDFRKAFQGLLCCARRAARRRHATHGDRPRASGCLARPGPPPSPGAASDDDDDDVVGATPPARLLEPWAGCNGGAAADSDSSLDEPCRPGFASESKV
5-hydroxytryptamine receptor 7, sequence (P34969 whole entry): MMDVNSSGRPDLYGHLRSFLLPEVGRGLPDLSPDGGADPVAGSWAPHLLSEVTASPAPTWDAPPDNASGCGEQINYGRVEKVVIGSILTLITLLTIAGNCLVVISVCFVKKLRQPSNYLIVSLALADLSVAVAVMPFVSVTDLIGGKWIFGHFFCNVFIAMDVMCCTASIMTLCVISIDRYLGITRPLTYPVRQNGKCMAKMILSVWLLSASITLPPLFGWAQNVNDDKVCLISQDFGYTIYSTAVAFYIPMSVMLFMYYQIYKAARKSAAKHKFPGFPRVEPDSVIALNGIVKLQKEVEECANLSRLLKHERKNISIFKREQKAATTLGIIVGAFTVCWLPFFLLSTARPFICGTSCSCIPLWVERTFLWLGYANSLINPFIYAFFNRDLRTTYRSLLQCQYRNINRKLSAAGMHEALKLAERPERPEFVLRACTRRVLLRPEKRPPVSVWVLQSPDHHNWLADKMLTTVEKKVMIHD
Cathepsin D (Homo sapiens), sequence (P07339 65-162 limits assumed): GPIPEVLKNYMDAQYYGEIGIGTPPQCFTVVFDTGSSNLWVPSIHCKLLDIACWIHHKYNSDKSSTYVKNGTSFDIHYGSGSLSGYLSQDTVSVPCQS
Cathepsin D (Homo sapiens), sequence (P07339 169-412 limits assumed): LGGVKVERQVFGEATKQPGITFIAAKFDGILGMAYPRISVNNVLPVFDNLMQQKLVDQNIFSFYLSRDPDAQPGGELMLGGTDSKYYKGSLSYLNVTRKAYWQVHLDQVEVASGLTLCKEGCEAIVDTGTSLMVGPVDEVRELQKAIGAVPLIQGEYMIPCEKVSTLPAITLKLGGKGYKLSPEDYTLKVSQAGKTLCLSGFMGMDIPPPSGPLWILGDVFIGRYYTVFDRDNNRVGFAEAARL
Histamine H3 receptor (Homo sapiens), sequence (Q9Y5N1 whole entry): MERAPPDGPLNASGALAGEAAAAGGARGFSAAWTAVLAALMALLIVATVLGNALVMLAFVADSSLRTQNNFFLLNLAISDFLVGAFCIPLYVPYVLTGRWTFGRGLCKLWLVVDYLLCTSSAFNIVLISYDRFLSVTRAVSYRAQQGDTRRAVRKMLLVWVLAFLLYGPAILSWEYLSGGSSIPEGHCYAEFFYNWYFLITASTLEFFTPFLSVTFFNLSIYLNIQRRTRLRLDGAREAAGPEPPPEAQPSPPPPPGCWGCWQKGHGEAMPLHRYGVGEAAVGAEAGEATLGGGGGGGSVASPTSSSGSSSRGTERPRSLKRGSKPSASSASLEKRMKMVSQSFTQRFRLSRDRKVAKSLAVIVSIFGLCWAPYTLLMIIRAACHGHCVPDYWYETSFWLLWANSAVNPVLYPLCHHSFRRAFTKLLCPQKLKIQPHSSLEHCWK
Muscarinic acetylcholine receptor M1 (Homo sapiens), sequence (P11229 whole entry): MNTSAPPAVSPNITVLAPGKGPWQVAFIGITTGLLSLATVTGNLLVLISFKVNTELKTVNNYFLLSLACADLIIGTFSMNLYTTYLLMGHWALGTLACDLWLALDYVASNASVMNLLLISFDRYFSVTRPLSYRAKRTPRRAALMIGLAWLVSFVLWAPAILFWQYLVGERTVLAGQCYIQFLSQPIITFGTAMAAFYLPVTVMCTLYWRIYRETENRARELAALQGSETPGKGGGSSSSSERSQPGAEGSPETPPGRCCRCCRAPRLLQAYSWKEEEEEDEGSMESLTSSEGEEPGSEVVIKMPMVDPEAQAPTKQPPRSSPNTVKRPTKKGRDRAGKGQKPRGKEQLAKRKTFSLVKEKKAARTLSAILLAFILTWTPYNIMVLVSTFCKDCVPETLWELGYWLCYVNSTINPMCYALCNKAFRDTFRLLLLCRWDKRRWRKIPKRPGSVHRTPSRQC
Chymase (Homo sapiens), sequence (P23946 whole entry): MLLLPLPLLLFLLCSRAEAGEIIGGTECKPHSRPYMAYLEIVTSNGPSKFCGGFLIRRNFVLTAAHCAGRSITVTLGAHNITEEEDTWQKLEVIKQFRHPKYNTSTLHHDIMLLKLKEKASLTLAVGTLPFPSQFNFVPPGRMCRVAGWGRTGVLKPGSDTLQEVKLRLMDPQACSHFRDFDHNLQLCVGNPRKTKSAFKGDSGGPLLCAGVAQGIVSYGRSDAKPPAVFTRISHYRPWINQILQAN
Cathepsin G (Homo sapiens), sequence (P08311 whole entry): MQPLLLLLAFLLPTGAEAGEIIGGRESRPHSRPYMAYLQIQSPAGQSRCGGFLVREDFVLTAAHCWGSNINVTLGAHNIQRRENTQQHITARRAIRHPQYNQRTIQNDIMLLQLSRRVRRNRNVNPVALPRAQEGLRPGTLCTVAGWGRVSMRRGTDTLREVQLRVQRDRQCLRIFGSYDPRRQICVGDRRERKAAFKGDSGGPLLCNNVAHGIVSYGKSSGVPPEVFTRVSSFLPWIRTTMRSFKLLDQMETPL

## CO[C@@H](C)c1c(Nc2ccc([C@H](N(C)C(=O)C3CCS(=O)(=O)CC3)C(F)(F)F)cc2)cnc2cc(Cl)nn12 [NVS-MALT1]
[1]
  inhibition: 7%
[2]
  inhibition: -4%
[3]
  inhibition: 26.7%
[4]
  inhibition: -1%
[5]
  IC50: 130 nM (active)
[6]
  inhibition: -9%
[7]
  inhibition: -3%
[8]
  inhibition: 5%
[9]
  IC50: 3.5 µM (active)
[10]
  inhibition: 20.6%
[11]
  inhibition: 0.8%
[12]
  inhibition: 0%
[13]
  inhibition: -5.74%
[14]
  inhibition: 0%
[15]
  inhibition: -1%
[16]
  inhibition: -1%
[17]
  inhibition: 0%
[18]
  IC50: 200 nM (active)
[19]
  inhibition: 7%

## CO[C@@H](C)c1c(Nc2ccc([C@@H](N(C)C(=O)C3CCS(=O)(=O)CC3)C(F)(F)F)cc2)cnc2cc(Cl)nn12 [NVS-MALT1-C]
[20]
  pKi: 6.05
[21]
  inhibition: -2.39%
[22]
  pKi: 5.00
[23]
  pKi: 5.80
